In US9492368B2, “External preparation for skin” (HAYASHIBARA CO., LTD., priority 2011, dated 2016):

Columns and labels:
[1] = system: keratinocyte growth factor (KGF); test: Expression of keratinocyte growth factor in NHDF cells (real-time PCR); assay type: cell-based, human; conditions: four hours, control = 1.0
Text: The confirmation that glucosyladenosines have an action of enhancing the differentiation of keratinocytes in Experiments 5 and 7 led to an examination on keratinocyte proliferation. The effects of 5′- and […] on the expression of keratinocyte growth factor (KGF) in normal human dermal fibroblasts (NHDF) were compared. […] After the culture, the supernatant in each well was removed and added with 5′-glucosyladenosine obtained by the method in Experiment 1-2 or 3′-glucosyladenosine obtained by the method in Experiment 2, which were respectively diluted with a DMEM medium supplemented with 1 v/v % FCS to give respective concentrations of 0.15 mM and 1.5 mM. A DMEM medium supplemented with 1 v/v % FCS but with no glucosyladenosines was used as a control. The cells were cultured at 37° C. for four hours under a 5 v/v % CO2 condition, washed twice with PBS(−) after removing the culture supernatants in each well by aspiration, and fed to an RNA extraction.
“QIA shledder+RNeasy Mini Kit”, a product name of a commercialized RNA extraction kit, produced by GIAGEN Benelux B.V., Netherlands, was used to extract the total RNAs. The handlings followed the operating instructions attached to the kit. Using “Super Script VILO cDNA Synthesis Kit”, a product name of a cDNA synthesis kit, commercialized by Invitrogen Corporation, CA, USA, an RT reaction was conducted under the conditions of treating a mixture of 10.5 μl of RNA, three microliters of 5×VILO reaction mix, 1.5 μl of 10× enzyme mix (15 μl in total) at 25° C. for 10 min, 42° C. for 60 min, and then 85° C. for five minutes.
Using “LightCycler 480 SYBR Green I Master”, a product name of Roche Diagnostics K.K., Tokyo, Japan, a real-time PCR reaction was conducted by mixing 1.8 μl of water, 6.0 μl of master mix, 0.6 μl of primer L (10 μM), 0.6 μl of primer R (10 μM), and 3.0 μl of template (12.0 μl in total), and treated with 45 cycles of a successive incubation cycle at 95° C. for 10 sec, 60° C. for 10 sec, and 72° C. for 15 sec). The KGF expression level in each sample was calculated from a standard curve and calibrated with the expression level of an internal standard (18s rRNA). Relative value for each sample was determined, when the expression level of the control was regarded as 1.0, and evaluated. The primers used were of Table 9.

[2] = system: three-dimensional skin model (EPI-200 Kit); test: Residual property in three-dimensional skin model (composition of permeated solution after 24 hours); conditions: 0.1% test sample in 30% ethanol
Protocol: (§1) “EPI Assay Medium”, a product name of EPI100 assay medium commercialized by Kurabo Industries Ltd., Okayama, Japan, was added to “12-WELL MULTI-MICROPLATE”, a product name of 12-well plate commercialized by Becton, Dickinson and Company, NJ, USA, in a volume of 0.33 ml/well; and “EPI-200 Kit”, a product name of a three-dimensional skin model cup, commercialized by Kanebo Cosmetics Inc., Tokyo, Japan, was transferred to each well. […] 5′-Glucosyladenosine prepared by the method in Experiment 1-2,3′-glucosyladenosine prepared by the method in Experiment 2, or adenosine was dissolved in 30% ethanol to give a final concentration of 0.1%, and 0.1 ml of each of the resulting solutions was added to each of the skin model cup. After incubating at 37° C. for 24 hours in a 5% CO2 condition, sample solutions (media in wells) were collected, subjected to ultrafiltration with “[sequence] 0.5 BIOMAX-5 MEMBRANE”, a product name of membrane commercialized by Nihon Millipore K.K., Tokyo, Japan, and diluted with the mobile phase. The diluent was subjected to HPLC under the following conditions and determined for the contents of 5′- and 3′-glucosyladenosines with an alternatively prepared standard curve.
<Conditions for HPLC Analysis>
(§2) Apparatus: an HPLC Pump, MODEL 510; a pump controller, MODEL 680; an autoinjector, MODEL 712; a detector, MODEL 2487; a data processing (quantity calculation), EMPOWER 2 SOFTWARRE, commercialized by Nihon Millipore K.K., Tokyo, Japan;
(§3) Column: “YMC-PACK ODS AQ-303”, a product name of an ODS column, ø4.6 mm×250 mm, commercialized by YMC Co., Ltd., Kyoto, Japan;
(§4) Mobile phase: {20 mM Acetic acid-ammonium acetate buffer (pH 3.5)}/(methanol)=92/8 (v/v);
Detection wavelength: 260 nm;
Injection volume: 10 μl; and
Column temperature: 40° C.

[3] = system: three-dimensional skin model (EPI-200 Kit); conditions: human, 24 h, 0.1 %
Protocol: as §1
<Conditions for HPLC Analysis>
as §2, §3, §4
Detection wavelength: 260 nm;
Injection volume: 10 μl; and
Column temperature: 40° C.

Row | Structure (SMILES) | Relative expression level of KGF ([1]; 0.15 mM) | Relative expression level of KGF ([1]; 1.5 mM) | Composition of permeated solution: 3′-glucosyladenosine [2] [%] | Concentration of 3′-glucosyladenosine in permeated solution [2] [µM] | Composition of permeated solution: 5′-glucosyladenosine [2] [%] | Concentration of 5′-glucosyladenosine in permeated solution [2] [µM] | Composition of permeated solution: adenosine [3] [%] | Composition of permeated solution: hypoxanthine [3] [%] | Composition of permeated solution: inosine [3] [%] | Concentration of adenosine in permeated solution [3] [µM] | Concentration of hypoxanthine in permeated solution [3] [µM] | Concentration of inosine in permeated solution [3] [µM]
1 | Nc1ncnc2c1ncn2[C@@H]1O[C@H](CO)[C@@H](O[C@H]2O[C@H](CO)[C@@H](O)[C@H](O)[C@H]2O)[C@H]1O [3′-Glucosyladenosine, α-D-glucopyranosyl-(1→3′)-adenosine] | 2.3 | 2.7 | 27 | 25 | – | – | – | – | – | – | – | –
2 | Nc1ncnc2c1ncn2[C@@H]1O[C@H](CO[C@H]2O[C@H](CO)[C@@H](O)[C@H](O)[C@H]2O)[C@@H](O)[C@H]1O [5′-Glucosyladenosine, α-D-glucopyranosyl-(1→5′)-adenosine] | 0.9 | 1.4 | – | – | 65 | 60 | – | – | – | – | – | –
3 | Nc1ncnc2c1ncn2[C@@H]1O[C@H](CO)[C@@H](O)[C@H]1O [Adenosine, reference compound] | – | – | – | – | – | – | 0 | 77 | 23 | 0 | 187 | 55
